# In patent US20100197757A1, “OXINDOLES AS KINASE INHIBITORS” (priority 2005, published 2010):
# Test system: MEK
# Experiment: IC50 column of the compound table in Example 1 (assay not given)
row,SMILES,IC50
1,"N/C(=C1\C(=O)Nc2ccccc21)c1ccc(I)cc1 [No. d, 3-[Amino-(4-iodo-phenyl)-methylene]-1,3-dihydro-indol-2-one]",2700 nM
2,"N/C(=C1\C(=O)Nc2cc(Cl)ccc21)c1ccc(I)cc1 [No. e, 3-(Amino-(4-iodo-phenyl)-methylene)-6-chloro-1,3-dihydro-indol-2-one]",4100 nM
3,"N/C(=C1\C(=O)Nc2ccc(Cl)cc21)c1ccc(I)cc1 [No. f, 3-(Amino-(4-iodo-phenyl)-methylene)-5-chloro-1,3-dihydro-indol-2-one]",1100 nM
4,"N/C(=C1\C(=O)Nc2ccc(Br)cc21)c1cccc(I)c1 [No. n, 3-(Amino-(3-iodo-phenyl)-methylene)-5-bromo-1,3-dihydro-indol-2-one]",3400 nM
5,"COc1ccc(/C(N)=C2/C(=O)Nc3ccccc32)cc1 [No. o, 3-[Amino-(4-methoxy-phenyl)methylene]-1,3-dihydro-indol-2-one]",3100 nM
6,"COc1ccc(/C(N)=C2/C(=O)Nc3cc(Cl)ccc32)cc1 [No. p, 3-(Amino-(4-methoxy-phenyl)-methylene)-6-chloro-1,3-dihydro-indol-2-one]",8700 nM

# Second part, the compound after the results:
row,IC50,SMILES
1,1100 nM,"N/C(=C1\C(=O)Nc2cc(Cl)ccc21)c1ccccc1 [No. a, 3-(Amino-phenyl-methylene)-6-chloro-1,3-dihydro-indol-2-one]"
2,260 nM,"N/C(=C1\C(=O)Nc2ccc(Cl)cc21)c1ccccc1 [No. b, 3-(Amino-phenyl-methylene)-5-chloro-1,3-dihydro-indol-2-one]"
3,940 nM,"N/C(=C1\C(=O)Nc2ccccc21)c1ccc(O)cc1 [No. c, 3-[Amino-(4-hydroxy-phenyl)-methylene]-1,3-dihydro-indol-2-one]"
